Biological target: T1, Tyrosine-protein kinase Mer (Homo sapiens, UniProt Q12866)
T1 sequence (Q12866 whole entry): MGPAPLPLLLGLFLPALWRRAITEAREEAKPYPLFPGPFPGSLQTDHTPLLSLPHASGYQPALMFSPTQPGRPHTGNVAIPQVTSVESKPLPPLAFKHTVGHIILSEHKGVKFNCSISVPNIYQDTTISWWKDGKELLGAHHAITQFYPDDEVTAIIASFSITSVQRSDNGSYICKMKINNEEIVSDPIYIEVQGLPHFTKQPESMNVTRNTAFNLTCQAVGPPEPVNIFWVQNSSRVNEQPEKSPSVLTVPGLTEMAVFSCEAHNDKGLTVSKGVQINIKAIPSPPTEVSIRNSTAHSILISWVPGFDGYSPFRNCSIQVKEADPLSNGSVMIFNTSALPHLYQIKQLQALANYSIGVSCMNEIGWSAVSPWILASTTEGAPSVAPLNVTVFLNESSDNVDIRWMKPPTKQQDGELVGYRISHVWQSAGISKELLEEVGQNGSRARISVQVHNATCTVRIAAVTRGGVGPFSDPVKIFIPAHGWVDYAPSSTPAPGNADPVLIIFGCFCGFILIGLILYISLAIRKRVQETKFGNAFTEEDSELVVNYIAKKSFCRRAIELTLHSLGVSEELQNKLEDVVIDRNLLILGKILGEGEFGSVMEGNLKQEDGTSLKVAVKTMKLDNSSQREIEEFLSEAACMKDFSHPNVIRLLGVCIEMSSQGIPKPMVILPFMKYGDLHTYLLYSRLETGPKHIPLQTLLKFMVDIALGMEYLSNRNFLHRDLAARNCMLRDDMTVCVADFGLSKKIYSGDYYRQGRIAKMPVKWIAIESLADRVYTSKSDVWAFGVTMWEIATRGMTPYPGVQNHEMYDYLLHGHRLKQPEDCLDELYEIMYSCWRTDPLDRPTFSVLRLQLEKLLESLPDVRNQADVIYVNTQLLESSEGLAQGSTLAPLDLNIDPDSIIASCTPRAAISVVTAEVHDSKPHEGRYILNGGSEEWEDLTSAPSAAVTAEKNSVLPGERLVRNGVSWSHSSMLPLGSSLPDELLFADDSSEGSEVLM
Test: TBD: TBD

| Compound | IC50 [nM] |
| --- | --- |
| CN1CCN(Cc2ccc(-c3ccc(CO[C@H]4CCC[C@@H]4NC(=O)c4cc(-c5ccc(Cl)c(F)c5)cnc4N)cc3)cc2)CC1 | < 10 |
| C[C@@H](CNC(=O)c1cc(-c2cnn(C)c2)cnc1N)OCc1ccc(Cl)c(Cl)c1 | > 1000 |
